Assay results as given in US20240108006A1, “PESTICIDALLY ACTIVE HETEROAROMATIC COMPOUNDS” (SYNGENTA CROP PROTECTION AG, priority 2021, published 2024).

Legend:
Assay type in all cases: in vivo
[1] = tested on: Euschistus heros; experiment: Example B3: Euschistus heros (neotropical brown stink bug), soybean leaves, N2 nymphs; conditions: 120 h, application rate of 200 ppm, 5 days after infestation, read-out: control in at least one of the two categories (mortality or growth inhibition)
Description: Example B3: Euschistus heros (Neotropical Brown Stink Bug)
Soybean leaves on agar in 24-well microtiter plates were sprayed with aqueous test solutions prepared from 10,000 ppm DMSO stock solutions. After drying the leaves were infested with N2 nymphs. The samples were assessed for mortality and growth inhibition in comparison to untreated samples 5 days after infestation.
The following compounds gave an effect of at least 80% control in at least one of the two categories (mortality or growth inhibition) at an application rate of 200 ppm: […]

[2] = tested on: Chilo suppressalis; experiment: Example B1: Chilo suppressalis (striped rice stemborer), artificial diet, L2 larvae; conditions: 144 h, application rate of 200 ppm, 6 days after infestation, read-out: control in at least one of the three categories (mortality, anti-feedant effect, or growth inhibition)
Summary of the method: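 Artificial diet was treated with aqueous test solutions made from 10,000 ppm DMSO stocks, dried, then infested with L2 larvae (6-8 per well). Mortality, anti-feeding effect and growth inhibition were scored against untreated samples 6 days after infestation, and control was counted when any category exceeded untreated.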

[3] = tested on: Myzus persicae; experiment: Example B7: Myzus persicae (green peach aphid), intrinsic activity, sucrose solution 24-well; conditions: 120 h, application rate of 12.5 ppm, 5 days after infestation, read-out: control (mortality)
Summary of the method: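 Compounds from 10,000 ppm DMSO stocks were mixed into sucrose solution in wells at a rate of 12.5 ppm. Aphid-infested pea seedlings were placed on a Parafilm membrane over the solution, so aphids fed through it. Mortality was scored 5 days after infestation.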

[4] = tested on: Plutella xylostella; experiment: Example B8: Plutella xylostella (diamond back moth), artificial diet 24-well, eggs; conditions: 192 h, application rate of 200 ppm, 8 days after infestation, read-out: effect in at least one of the two categories (mortality or growth inhibition)
Summary of the method: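 Artificial diet in 24-well plates treated with aqueous dilutions of DMSO stock (10,000 ppm stock) and dried, then infested with Plutella eggs. Mortality and growth inhibition scored versus untreated samples 8 days after infestation.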

[5] = tested on: Myzus persicae; experiment: Example B5: Myzus persicae (green peach aphid), feeding/contact activity; conditions: 144 h, application rate of 200 ppm, 6 days after infestation
Description: Example B5: Myzus persicae (Green Peach Aphid):Feeding/Contact Activity
Sunflower leaf discs were placed onto agar in a 24-well microtiter plate and sprayed with aqueous test solutions prepared from 10,000 ppm DMSO stock solutions. After drying, the leaf discs were infested with an aphid population of mixed ages. The samples were assessed for mortality 6 days after infestation.

[6] = tested on: Diabrotica balteata; experiment: Example B2: Diabrotica balteata (corn root worm), maize sprouts, L2 larvae; conditions: 96 h, application rate of 200 ppm, 4 days after infestation, read-out: control in at least one of the two categories (mortality or growth inhibition)
Summary of the method: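 Maize sprouts on agar sprayed with aqueous test solutions made from 10,000 ppm DMSO stocks, dried, then infested with 6 to 10 L2 larvae per well. Mortality and growth inhibition assessed versus untreated samples 4 days after infestation; application rate 200 ppm.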

[7] = tested on: Spodoptera littoralis; experiment: Example B9: Spodoptera littoralis (Egyptian cotton leaf worm), cotton leaf discs, L1 larvae; conditions: foliar, 72 h, application rate of 200 ppm, 3 days after infestation, read-out: control in at least one of the three categories (mortality, anti-feedant effect, or growth inhibition)
Summary of the method: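 Cotton leaf discs on agar sprayed with aqueous test solutions from 10,000 ppm DMSO stocks, dried, then infested with five L1 larvae. Mortality, anti-feeding and growth inhibition scored against untreated samples 3 days after infestation.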

C[C@H](NC(=O)Nc1cc(C#N)c(F)cc1F)c1ncnn1-c1ncccn1 [Example P391, 1-(5-cyano-2,4-difluoro-phenyl)-3-[(1S)-1-(2-pyrimidin-2-yl-1,2,4-triazol-3-yl)ethyl]urea]
≥ 80%: percent control (mortality or growth inhibition) at 200 ppm [1] | percent control (mortality, anti-feedant effect or growth inhibition) at 200 ppm [2] | mortality at 12.5 ppm [3]

C[C@@H](c1ncnn1-c1ncccn1)N1COCN(c2cc(OC(F)(F)C(F)F)c(Cl)cc2Cl)C1=O [Example P137, 3-[2,4-dichloro-5-(1,1,2,2-tetrafluoroethoxy)phenyl]-5-[(1S)-1-(2-pyrimidin-2-yl-1,2,4-triazol-3-yl)ethyl]-1,3,5-oxadiazinan-4-one]
≥ 80%: percent effect (mortality or growth inhibition) at 200 ppm [4] | mortality at 200 ppm [5] | percent control (mortality or growth inhibition) at 200 ppm [6] | percent control (mortality, anti-feedant effect or growth inhibition) at 200 ppm [7] | percent control (mortality, anti-feedant effect or growth inhibition) at 200 ppm [2] | mortality at 12.5 ppm [3]

C[C@H](NC(=O)N(C)c1cc(OC(F)(F)C(F)F)c(Cl)cc1Cl)c1ncnn1-c1ncccn1 [Example P176, 1-[2,4-dichloro-5-(1,1,2,2-tetrafluoroethoxy)phenyl]-1-methyl-3-[(1S)-1-(2-pyrimidin-2-yl-1,2,4-triazol-3-yl)ethyl]urea]
≥ 80%: percent effect (mortality or growth inhibition) at 200 ppm [4] | mortality at 200 ppm [5] | percent control (mortality or growth inhibition) at 200 ppm [6] | percent control (mortality, anti-feedant effect or growth inhibition) at 200 ppm [7] | percent control (mortality, anti-feedant effect or growth inhibition) at 200 ppm [2] | mortality at 12.5 ppm [3]

C[C@H](NC(=O)Nc1cnc(Br)cc1Br)c1ncnn1-c1ncccn1 [Example P55, 1-(4,6-dibromo-3-pyridyl)-3-[(1S)-1-(2-pyrimidin-2-yl-1,2,4-triazol-3-yl)ethyl]urea]
≥ 80%: percent control (mortality or growth inhibition) at 200 ppm [1] | percent effect (mortality or growth inhibition) at 200 ppm [4] | percent control (mortality, anti-feedant effect or growth inhibition) at 200 ppm [7] | percent control (mortality, anti-feedant effect or growth inhibition) at 200 ppm [2] | mortality at 12.5 ppm [3]

C[C@H](NC(=O)Nc1ccc(C(F)(F)F)cc1I)c1ncnn1-c1ncccn1 [Example P72, 1-[2-iodo-4-(trifluoromethyl)phenyl]-3-[(1S)-1-(2-pyrimidin-2-yl-1,2,4-triazol-3-yl)ethyl]urea]
≥ 80%: percent control (mortality or growth inhibition) at 200 ppm [1] | percent effect (mortality or growth inhibition) at 200 ppm [4] | percent control (mortality, anti-feedant effect or growth inhibition) at 200 ppm [7] | percent control (mortality, anti-feedant effect or growth inhibition) at 200 ppm [2] | mortality at 12.5 ppm [3]

C[C@H](NC(=O)Nc1ccc(C(F)(F)F)nc1Cl)c1ncnn1-c1ncccn1 [Example P18, 1-[2-chloro-6-(trifluoromethyl)-3-pyridyl]-3-[(1S)-1-(2-pyrimidin-2-yl-1,2,4-triazol-3-yl)ethyl]urea]
≥ 80%: percent control (mortality or growth inhibition) at 200 ppm [1] | percent control (mortality, anti-feedant effect or growth inhibition) at 200 ppm [7] | mortality at 12.5 ppm [3]

C[C@H](NC(=O)Nc1cc(C(F)(F)F)c(Cl)cc1Br)c1nccnc1-c1ccc(C#N)cn1 [Example P246, 1-[2-bromo-4-chloro-5-(trifluoromethyl)phenyl]-3-[(1S)-1-[3-(5-cyano-2-pyridyl)pyrazin-2-yl]ethyl]urea]
≥ 80%: percent control (mortality or growth inhibition) at 200 ppm [1] | percent control (mortality or growth inhibition) at 200 ppm [6] | percent control (mortality, anti-feedant effect or growth inhibition) at 200 ppm [7]

C[C@H](NC(=O)Nc1cc(OC(F)(F)C(F)F)c(Cl)cc1Cl)c1nccnc1-c1ncccn1 [Example P135, 1-[2,4-dichloro-5-(1,1,2,2-tetrafluoroethoxy)phenyl]-3-[(1S)-1-(3-pyrimidin-2-ylpyrazin-2-yl)ethyl]urea]
≥ 80%: percent effect (mortality or growth inhibition) at 200 ppm [4] | mortality at 200 ppm [5] | percent control (mortality or growth inhibition) at 200 ppm [6] | percent control (mortality, anti-feedant effect or growth inhibition) at 200 ppm [7] | percent control (mortality, anti-feedant effect or growth inhibition) at 200 ppm [2] | mortality at 12.5 ppm [3]

C[C@H](NC(=O)Nc1cc(OC(F)(F)C(F)F)c(Cl)cc1Cl)c1ncnn1-c1ccc(=O)n(C)n1 [Example P269, 1-[2,4-dichloro-5-(1,1,2,2-tetrafluoroethoxy)phenyl]-3-[(1S)-1-[2-(1-methyl-6-oxo-pyridazin-3-yl)-1,2,4-triazol-3-yl]ethyl]urea]
≥ 80%: percent control (mortality or growth inhibition) at 200 ppm [1] | percent control (mortality or growth inhibition) at 200 ppm [6] | percent control (mortality, anti-feedant effect or growth inhibition) at 200 ppm [7] | mortality at 12.5 ppm [3]

C[C@H](NC(=O)Nc1cc(C#N)c(Cl)cc1F)c1ncnn1-c1ncccn1 [Example P182, 1-(4-chloro-5-cyano-2-fluoro-phenyl)-3-[(1S)-1-(2-pyrimidin-2-yl-1,2,4-triazol-3-yl)ethyl]urea]
≥ 80%: percent control (mortality or growth inhibition) at 200 ppm [1] | percent effect (mortality or growth inhibition) at 200 ppm [4] | percent control (mortality, anti-feedant effect or growth inhibition) at 200 ppm [7] | percent control (mortality, anti-feedant effect or growth inhibition) at 200 ppm [2] | mortality at 12.5 ppm [3]

C[C@H](NC(=O)Nc1cnc(Br)cc1Br)c1ncnn1-c1ccc(C#N)cn1 [Example P255, 1-[(1S)-1-[2-(5-cyano-2-pyridyl)-1,2,4-triazol-3-yl]ethyl]-3-(4,6-dibromo-3-pyridyl)urea]
≥ 80%: percent control (mortality or growth inhibition) at 200 ppm [1] | percent effect (mortality or growth inhibition) at 200 ppm [4] | percent control (mortality, anti-feedant effect or growth inhibition) at 200 ppm [7] | percent control (mortality, anti-feedant effect or growth inhibition) at 200 ppm [2]

C[C@H](NC(=O)Nc1cc(OC(F)(F)C(F)F)c(Cl)cc1Cl)c1ncnn1-c1cnccn1 [Example P278, 1-[2,4-dichloro-5-(1,1,2,2-tetrafluoroethoxy)phenyl]-3-[(1S)-1-(2-pyrazin-2-yl-1,2,4-triazol-3-yl)ethyl]urea]
≥ 80%: percent effect (mortality or growth inhibition) at 200 ppm [4] | mortality at 200 ppm [5] | percent control (mortality or growth inhibition) at 200 ppm [6] | percent control (mortality, anti-feedant effect or growth inhibition) at 200 ppm [7] | percent control (mortality, anti-feedant effect or growth inhibition) at 200 ppm [2] | mortality at 12.5 ppm [3]

C[C@@H](c1ncnn1-c1ncccn1)N(C)C(=O)Nc1cc(OC(F)(F)C(F)F)c(Cl)cc1Cl [Example P133, 3-[2,4-dichloro-5-(1,1,2,2-tetrafluoroethoxy)phenyl]-1-methyl-1-[(1S)-1-(2-pyrimidin-2-yl-1,2,4-triazol-3-yl)ethyl]urea]
≥ 80%: percent effect (mortality or growth inhibition) at 200 ppm [4] | mortality at 200 ppm [5] | percent control (mortality or growth inhibition) at 200 ppm [6] | percent control (mortality, anti-feedant effect or growth inhibition) at 200 ppm [7] | percent control (mortality, anti-feedant effect or growth inhibition) at 200 ppm [2] | mortality at 12.5 ppm [3]
